From patent US20100331233A1, “CRYSTAL OF XPA AND ERCC1 COMPLEX AND USES THEREOF” (priority 2007, published 2010)
{FAM} = 6-carboxyfluorescein (6-FAM) label

Assays:
[1] = biological target: T1, central domain of ERCC1 (ERCC196-214) (Homo sapiens, UniProt P07992); settings: Tsodikov et al., 2005; direct titration; read-out: equilibrium binding constant for DNA binding to the central domain of ERCC1; cited from earlier work
T1 construct: His6 (N); made in house; host or cells: E. coli BL21(DE3)
T1 sequence (P07992 96-214): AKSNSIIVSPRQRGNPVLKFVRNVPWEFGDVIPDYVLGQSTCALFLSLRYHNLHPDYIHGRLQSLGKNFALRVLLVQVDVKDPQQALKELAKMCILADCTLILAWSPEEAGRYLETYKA

[2] = tested on: NER activity in XP-A (XP2OS) cell extracts; test: In vitro NER assay in XP-A (XP2OS) cell extract supplemented with wild-type or mutant XPA protein; assay type: biochemical; settings: XPA-deficient cell extract, 200 and 800 nM XPA, cisplatin crosslink plasmid
Source text: In Vitro NER assay. […] The wild-type, […], […] and […]/[…]

[3] = tested on: DNA three-way junction; test: DNA binding assay (band shift) with 5'-labeled DNA three-way junction; settings: 1 nM DNA, 4-150 nM XPA
Procedure: DNA binding assays. The three-way junction DNA substrate described previously (substrate 7 in Table 1 of Hohl et al., 2003, J. Biol. Chem., 278, 19500-19508) was 5′-^32P-end labeled and incubated at 1 nM concentration with various amounts of XPA in EMSA buffer (25 mM Hepes·KOH pH 8.0, 30 mM KCl, 10% glycerol, 1 mM DTT, 1 mM EDTA, 0.1 mg/ml BSA) at a reaction volume of 15 μl. After equilibration at room temperature for 30 min, the samples were loaded on a 5% (37.5:1) native polyacrylamide gel containing 0.5×TBE and electrophoresed at 90 V for 2 hrs. Gels were dried and the radioactive bands visualized by autoradiography.

[4] = biological target: T2, ERCC1 central domain (ERCC1 96-214 / 92-214) (Homo sapiens, UniProt P07992 SEQ:96-214); test: FP; 2.33 uM ERCC1, 50 nM DNA; XPA67-80 peptide competes (EC50 micromolar); 20 mM Tris pH 8.0, 20 mM NaCl, 2 mM bME; settings: tags: N-terminal His6; label: 5' 6-FAM
T2 sequence: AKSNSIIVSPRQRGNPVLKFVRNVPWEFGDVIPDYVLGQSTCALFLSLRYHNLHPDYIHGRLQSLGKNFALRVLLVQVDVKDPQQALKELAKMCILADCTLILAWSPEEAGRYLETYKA

[5] = biological target: T3, XPA67-80 peptide (KIIDTGGGFILEEE) (Homo sapiens, UniProt P23025 SEQ:67-80); test: FP; peptide does not detectably bind DNA (data not shown); nonspecific anisotropy increase and quenching above 30 uM; settings: protein: synthetic; tags: synthetic peptide, solid phase, HPLC-purified; label: 5' 6-FAM
T3 chain: KIIDTGGGFILEEE

## DNA: 5' 6-FAM-labeled single-stranded 40mer DNA, 5'-CCGGTGGCCAGCGCTCGGCG(T)20 (DNA CCGGTGGCCAGCGCTCGGCGTTTTTTTTTTTTTTTTTTTT; DNA, 5' {FAM}, backbone not given here)
[1]
  Kd: 1500 nM

## XPA-WT: purified full length wild-type XPA protein expressed in E. coli
[2]
  NER activity restored by XPA protein: robust NER activity
[3]
  binding to DNA three-way junction: bound with similar affinity

B1: 6FAM-labeled 40mer ssDNA (ssDNA)
DNA: CCGGTGGCCAGCGCTCGGCGTTTTTTTTTTTTTTTTTTTT
[4]
  binding result: binds
[5]
  binding result: no binding
